From patent publication US11858919B2, “HDAC1,2 inhibitors” (REGENACY PHARMACEUTICALS, LLC, priority 2018, dated 2024)
pIC50: −log10 of the molar value. Where two headings read alike, the source gives them in different places.

Columns and labels:
HDAC1 = target: T1, HDAC1 (Homo sapiens, UniProt Q13547); assay: HDAC enzyme assay, HDAC1 (fluorescence, tripeptide substrate/trypsin); assay type: biochemical; conditions: 3.3 ng/ml enzyme, 16 μM substrate, 10 min preincubation
T1 construct: purchased BPS Biosciences
T1 sequence (Q13547 whole entry): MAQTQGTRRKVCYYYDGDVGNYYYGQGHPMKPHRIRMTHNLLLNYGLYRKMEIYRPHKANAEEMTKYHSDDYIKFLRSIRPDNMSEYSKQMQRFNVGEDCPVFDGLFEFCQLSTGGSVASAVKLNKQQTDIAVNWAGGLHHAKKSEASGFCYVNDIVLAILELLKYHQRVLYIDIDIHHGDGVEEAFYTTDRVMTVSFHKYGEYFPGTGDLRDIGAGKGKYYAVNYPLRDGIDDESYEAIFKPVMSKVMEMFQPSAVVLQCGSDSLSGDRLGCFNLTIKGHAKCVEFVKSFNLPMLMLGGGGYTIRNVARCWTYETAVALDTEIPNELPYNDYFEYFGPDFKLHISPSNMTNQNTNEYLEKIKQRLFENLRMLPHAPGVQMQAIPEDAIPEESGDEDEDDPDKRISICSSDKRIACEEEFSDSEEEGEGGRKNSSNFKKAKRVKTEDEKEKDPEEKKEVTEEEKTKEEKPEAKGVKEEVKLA
Description: (§1) Compounds for testing were diluted in […] to 50 fold the final concentration and a ten-point three-fold dilution series was made. The compounds were diluted in assay buffer (50 mM HEPES, pH 7.4, 100 mM KCl, 0.001% Tween-20, 0.05% BSA, 20 μM TCEP) to 6-fold their final concentration. The HDAC enzymes (purchased from BPS Biosciences) were diluted to 1.5-fold their final concentration in assay buffer. The tripeptide substrate and trypsin at 0.05 μM final concentration were diluted in assay buffer at 6-fold their final concentration. The final enzyme concentrations used in these assays were 3.3 ng/ml (HDAC1), 0.2 ng/ml (HDAC2) and 0.08 ng/ml (HDAC3). The final substrate concentrations used were 16 μM (HDAC1), 10 μM (HDAC2) and 17 μM (HDAC3).
(§2) Five μl of compounds and 20 μl of enzyme were added to wells of a black, opaque 384 well plate in duplicate. Enzyme and compound were incubated together at room temperature for 10 minutes. Five μl of substrate was added to each well, the plate was shaken for 60 seconds and placed into a Victor 2 microtiter plate reader. The development of fluorescence was monitored for 60 min and the linear rate of the reaction was calculated. The IC50 was determined using Graph Pad Prism by a four parameter curve fit.

HDAC2 = target: T2, HDAC2 (Homo sapiens, UniProt Q92769); assay: HDAC enzyme assay, HDAC2 (fluorescence, tripeptide substrate/trypsin); assay type: biochemical; conditions: 0.2 ng/ml enzyme, 10 μM substrate, 10 min preincubation
T2 construct: purchased BPS Biosciences
T2 sequence (Q92769 whole entry): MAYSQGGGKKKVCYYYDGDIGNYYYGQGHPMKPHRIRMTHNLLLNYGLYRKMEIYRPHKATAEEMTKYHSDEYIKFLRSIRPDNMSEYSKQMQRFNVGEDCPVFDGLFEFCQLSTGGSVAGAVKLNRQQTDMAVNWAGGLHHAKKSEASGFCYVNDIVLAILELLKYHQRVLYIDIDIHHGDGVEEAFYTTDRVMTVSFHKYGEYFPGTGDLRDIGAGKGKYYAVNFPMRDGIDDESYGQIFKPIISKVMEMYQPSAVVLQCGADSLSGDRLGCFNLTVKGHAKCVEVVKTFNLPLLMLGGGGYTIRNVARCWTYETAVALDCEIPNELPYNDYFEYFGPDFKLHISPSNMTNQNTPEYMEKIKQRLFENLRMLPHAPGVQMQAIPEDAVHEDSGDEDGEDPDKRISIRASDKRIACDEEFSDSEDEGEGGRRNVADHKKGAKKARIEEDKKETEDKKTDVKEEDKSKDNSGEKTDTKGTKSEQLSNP
Description: as §1, §2

HDAC3 = target: T3, HDAC3 (Homo sapiens, UniProt O15379); assay: HDAC enzyme assay, HDAC3 (fluorescence, tripeptide substrate/trypsin); assay type: biochemical; conditions: 0.08 ng/ml enzyme, 17 μM substrate, 10 min preincubation
T3 construct: purchased BPS Biosciences
T3 sequence (O15379 whole entry): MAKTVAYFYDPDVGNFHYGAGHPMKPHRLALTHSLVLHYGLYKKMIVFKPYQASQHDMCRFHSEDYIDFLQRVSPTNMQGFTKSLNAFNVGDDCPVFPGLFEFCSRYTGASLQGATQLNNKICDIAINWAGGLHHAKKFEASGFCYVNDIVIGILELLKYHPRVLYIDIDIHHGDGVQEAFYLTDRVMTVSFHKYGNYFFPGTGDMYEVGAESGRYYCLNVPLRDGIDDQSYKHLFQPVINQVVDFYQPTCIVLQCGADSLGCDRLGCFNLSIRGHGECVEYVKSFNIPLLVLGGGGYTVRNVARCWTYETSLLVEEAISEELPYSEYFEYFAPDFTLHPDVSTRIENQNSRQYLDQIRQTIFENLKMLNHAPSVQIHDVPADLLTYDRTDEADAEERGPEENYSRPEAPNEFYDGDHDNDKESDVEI
T3 sequence (Q9Y618 395-489 partner limits assumed): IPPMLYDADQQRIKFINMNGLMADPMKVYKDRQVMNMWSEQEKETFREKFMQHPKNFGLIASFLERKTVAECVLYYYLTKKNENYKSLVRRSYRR
Description: as §1, §2

[1] = Pharmacokinetics in male SD rats (cassette dosing, IV and PO), plasma level by LC/MS/MS; assay type: in vivo; conditions: male SD rat; for CL renal: read-out: IV Clr.; for bioavailability: dose adjusted PO AUC (5 mg/kg) to IV AUC (1 mg/kg), read-out: F % (oral bioavailability)
Description: Male SD rats were fasted overnight. Compounds of the invention were dissolved in dimethyl acetamide at 10 times the final concentration, then Solutol HS 15 (BASF) was added to a final concentration of 10%. Finally, 80% saline was added and vortexed to achieve a clear solution. For the IV dosing three animals were injected via the foot dorsal vein with 1 mg/kg compound. For the PO dosing 5 mg/kg of compound was delivered by oral gavage. Blood was collected via the tail vein into K2EDTA tubes at 5 minutes, 15 minutes, 30 minutes, 1 hour, 2 hours, 4 hours, 8 hours and 24 hours after dosing. The blood was centrifuged at 2000 g for 5 minutes at 4° C. to obtain plasma. The plasma was extracted with acetonitrile and the level of compound was analyzed by LC/MS/MS. The level of compound in plasma was calculated from a standard curve in rat plasma. The IV clearance (L/h/kg) and area under the curve (h*ng/mL) were calculated using WinNonLin software. The dose adjusted area under the curve for the IV and oral dosing were used to calculate the oral bioavailability.
Pharmacokinetic properties were assessed in a rat cassette dosing experiment. The IV clearance (IV Clr.) is in units of L/hr/kg. The oral maximum plasma concentration (PO Cmax) is in units of ng/ml. The oral plasma half-life (PO T½) is in units of hours. The oral area under the curve (PO AUC) is in units of hours*ng/ml. The fraction absorbed by the oral route (F %) is a percentage of the oral area under the curve to the IV area under the curve, dose adjusted.

[2] = PO 5 mg/kg oral gavage, read-out: PO AUC
[3] = PO 5 mg/kg oral gavage, read-out: PO t1/2

pIC50 (HDAC1) | pIC50 (HDAC2) | pIC50 (HDAC3) | AUC ([1]; IV 1 mg/kg, read-out: IV AUC) [ng·h/mL] | CL renal ([1]; IV 1 mg/kg) [mL/min/kg] | half-life ([1]; IV 1 mg/kg, read-out: IV t1/2) [h] | SMILES | IV clearance ([1]; IV 1 mg/kg) [mL/min/kg] | Cmax ([1]; PO 5 mg/kg oral gavage) [ng/mL] | AUC [1, 2] [ng·h/mL] | half-life [1, 3] [h] | bioavailability [1] [%]
8.00 to 9.00 | 7.82 to 8.30 | 6.14 to 6.15 | – | – | – | Nc1ccc(-c2cccs2)cc1NC(=O)c1ccc2c(c1)CC(=O)N2CCCN1CCOCC1 [Compound 016] | – | – | – | – | –
5.38 | 5.67 | 5.47 | – | – | – | CN1C(=O)C(C)(C)c2cc(C(=O)Nc3cc(-c4cccs4)ccc3N)ccc21 [Compound 014] | – | – | – | – | –
7.82 to 8.30 | 7.70 to 7.82 | 6.70 to 6.96 | 15 to 20 | < 8.33 | 1 to 5 | CN(C)CCNc1ccc2cc(C(=O)Nc3cc(-c4cccs4)ccc3N)cnc2c1 [Compound 025] | – | – | – | – | –
8.00 to 8.30 | 7.46 to 7.60 | 6.52 to 6.55 | < 15 | < 8.33 | 0.5 to 2 | CN1CCN(c2ccc3cc(C(=O)Nc4cc(-c5cccs5)ccc4N)cnc3c2)CC1 [Compound 032] | – | – | – | – | –
7.22 to 7.30 | 7.22 to 7.30 | 6.52 to 6.54 | – | – | – | Nc1ccc(-c2cccs2)cc1NC(=O)c1ccc2nc(N3CCNCC3)ccc2c1 [Compound 028] | – | – | – | – | –
7.82 to 8.00 | 7.12 to 7.15 | 5.94 to 5.95 | – | – | – | Nc1ccc(-c2cccs2)cc1NC(=O)c1ccc2c(c1)CC(=O)N2CCN1CCCCC1 [Compound 006] | – | – | – | – | –
7.26 to 7.30 | 6.80 to 6.81 | 5.91 to 5.92 | 1 to 5 | < 1.67 | < 0.5 | COCCN(C)c1ccc2cc(C(=O)Nc3cc(-c4cccs4)ccc3N)cnc2c1 [Compound 030] | – | – | – | – | –
7.70 to 7.82 | 7.40 to 7.46 | 6.15 to 6.16 | – | – | – | Cn1cnc2cc(C(=O)Nc3cc(-c4cccs4)ccc3N)ccc21 [Compound 019] | – | – | – | – | –
> 8.30 | 7.60 to 7.82 | 6.60 to 6.62 | 1 to 5 | < 3.33 | 0.5 to 1 | CN(C)CCN(C)c1ccc2cc(C(=O)Nc3cc(-c4cccs4)ccc3N)cnc2c1 [Compound 031] | – | – | – | – | –
7.82 to 8.00 | 7.35 to 7.40 | 6.32 to 6.33 | 10800 | – | 15 to 20 | Nc1ccc(-c2cccs2)cc1NC(=O)c1ccc2[nH]c(C3CC3)nc2c1 [Compound 009] | 0.167 to 8.33 | 4150 to 4200 | 65200 to 65400 | 10 to 15 | 115 to 125
8.00 to 8.30 | 7.52 to 7.60 | 6.27 to 6.28 | 10600 to 10800 | – | 15 to 20 | Nc1ccc(-c2cccs2)cc1NC(=O)c1ccc2c(c1)CC(=O)N2 [Compound 004] | 0.167 to 8.33 | 3500 to 3550 | 61200 to 61400 | 10 to 15 | 110 to 115
7.60 to 7.82 | 6.98 to 7.30 | 6.12 | 20 to 25 | < 1.67 | 1 to 3 | COCCNc1ccc2cc(C(=O)Nc3cc(-c4cccs4)ccc3N)cnc2c1 [Compound 029] | – | – | – | – | –
8.00 to 8.30 | 7.52 to 7.60 | 5.88 to 5.89 | – | – | – | Cc1nc2ccc(C(=O)Nc3cc(-c4cccs4)ccc3N)cc2[nH]1 [Compound 020] | – | – | – | – | –

SMILES | pIC50 (HDAC1) | pIC50 (HDAC2) | pIC50 (HDAC3) | AUC ([1]; IV 1 mg/kg, read-out: IV AUC) [ng·h/mL] | CL renal ([1]; IV 1 mg/kg) [mL/min/kg] | half-life ([1]; IV 1 mg/kg, read-out: IV t1/2) [h] | IV clearance ([1]; IV 1 mg/kg) [mL/min/kg] | Cmax ([1]; PO 5 mg/kg oral gavage) [ng/mL] | AUC [1, 2] [ng·h/mL] | half-life [1, 3] [h] | bioavailability [1] [%]
Nc1ccc(-c2cccs2)cc1NC(=O)c1ccc2c(c1)CC(=O)N2CCN1CCOCC1 [Compound 003] | 8.00 to 9.00 | 7.60 to 8.30 | 6.23 to 6.84 | 1800 to 1900 | – | 5 to 10 | 1.67 to 16.7 | 950 to 1000 | 11400 to 11600 | 5 to 10 | 130 to 140
Nc1ccc(-c2ccccc2)cc1NC(=O)c1ccc2c(c1)CC(=O)N2CCN1CCOCC1 [Compound 013] | 7.46 to 7.60 | 7.10 to 7.15 | 5.98 | 2700 to 2800 | – | 1 to 5 | 1.67 to 16.7 | 1900 to 1950 | 11800 | 1 to 5 | 80 to 90
